# Data from US7514251B2, “O-methyltransferases of tetrahydrobenzylisoquinoline alkaloid biosynthesis in Papaver somniferum” (priority 2003, dated 2009).
# Where two headings read alike, the source gives them in different places.
# Experiments:
# Format in all cases: biochemical
# [1] = target: T1, PSOMT1 ((R,S)-reticuline 7-O-methyltransferase) (Papaver somniferum, UniProt Q6WUC2)
# T1 construct: The full-length cDNA generated by RT-PCR was ligated into pFastBac HTa; His6 (N); made in house; host or cells: Spodoptera frugiperda Sf9 (baculovirus, pFastBac HTa)
# T1 sequence (Q6WUC2 whole entry): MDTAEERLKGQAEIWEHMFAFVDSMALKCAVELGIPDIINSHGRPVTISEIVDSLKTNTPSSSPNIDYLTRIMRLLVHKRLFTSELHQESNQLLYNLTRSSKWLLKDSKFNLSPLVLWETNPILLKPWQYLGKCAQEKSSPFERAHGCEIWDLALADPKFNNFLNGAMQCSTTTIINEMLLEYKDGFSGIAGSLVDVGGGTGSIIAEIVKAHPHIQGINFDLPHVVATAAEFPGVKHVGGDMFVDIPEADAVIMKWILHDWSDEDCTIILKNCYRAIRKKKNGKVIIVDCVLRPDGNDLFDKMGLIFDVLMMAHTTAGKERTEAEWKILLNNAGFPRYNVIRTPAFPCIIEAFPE
# Description: (§1) Heterologous Expression and Enzyme Purification—The full-length cDNA generated by RT-PCR was ligated into pFastBac HTa that had been digested with restriction endonucleases BamHI and NotI. The recombinant plasmid was transposed into baculovirus DNA in the Escherichia coli strain DH10BAC (Life Technologies) and then transfected into Spodoptera frugiperda Sf9 cells according to the manufacturer's instructions. The insect cells were propagated and the recombinant virus was amplified according to (16,17). INSECT-XPRESS serum-free medium (Bio Whittaker) was used in the enzyme expression experiments.
# (§2) After infection of 20 ml suspension grown insect cells had proceded for 3-4 days at 28° C. and 130 rpm, the cells were removed by centrifugation under sterile conditions at 900× g for 5 min at 4° C. All subsequent steps were performed at 4° C. The pellet was discarded and to the medium was added 0.73 g NaCl, 2.5 ml glycerol and 50 μl […]-mercaptoethanol. The pH was adjusted to 7.0 with 1.0 M NaOH. The His-tagged O-methyltransferase was then purified by affinity chromatography using a cobalt resin (Talon, Clontech) according to the manufacturer's instructions.
# (§3) Enzyme assay and product identification: The O-methylation reactions catalysed by the two O-methyltransferases were assayed at least two times in duplicate according to Rüffer et al. (1983a; 1983b) as follows. Substrate (25 nmol), [methyl-3H]-AdoMet (20,000 dpm, 0.4 fmol), AdoMet (10 nmol) Tris/HC1 buffer pH 8.0 (10 μmol), ascorbate (5 μmol) and 5-10 μg of enzyme were incubated in a total volume of 150 μl at 35° C. for 5-60 min. The enzymic reaction was terminated by addition of 200 μl ethylacetate. The organic phase ([…]) was added to 3 ml high flash point liquid scintillation cocktail (Packard) and the radioactivity quantified with a Beckman LS6000TA liquid scintillation counter.
# (§4) General Methods—Total RNA was isolated and RNA gels were run and blotted as described previously (20). Genomic DNA was isolated and DNA gels were run and blotted according to (21). cDNA clones were labeled by PCR labeling with [[…]-^32P]dATP. Hybridized RNA on RNA gel blots and DNA on DNA gel blots were visualized with a STORM phosphor imager (Molecular Dynamics). The entire nucleotide sequence on both DNA strands of the full-length clone was determined by dideoxy cycle sequencing using internal DNA sequences for the design of deoxyoligonucleotides as sequencing primers. Saturation curves and double reciprocal plots were constructed with the Fig. P program Version 2.7 (Biosoft, Cambridge, UK). The influence of pH on enzyme activity was monitored in sodium citrate (pH 4-6), sodium phosphate (pH 6-7.0) and Tris-HCl (pH 7.0-9), glycine/NaOH (pH 9-10.5) buffered solutions.
# [2] = target: T2, PSOMT2 ((R,S)-norcoclaurine 6-O-methyltransferase) (Papaver somniferum, UniProt Q6WUC1); assay: HPLC-MS identification of enzymic products of PSOMT2; details: HPLC-MS of enzymic product
# T2 construct: The full-length cDNA generated by RT-PCR was ligated into pFastBac HTa; His6 (N); made in house; host or cells: Spodoptera frugiperda Sf9 (baculovirus, pFastBac HTa)
# T2 sequence (Q6WUC1 1-346): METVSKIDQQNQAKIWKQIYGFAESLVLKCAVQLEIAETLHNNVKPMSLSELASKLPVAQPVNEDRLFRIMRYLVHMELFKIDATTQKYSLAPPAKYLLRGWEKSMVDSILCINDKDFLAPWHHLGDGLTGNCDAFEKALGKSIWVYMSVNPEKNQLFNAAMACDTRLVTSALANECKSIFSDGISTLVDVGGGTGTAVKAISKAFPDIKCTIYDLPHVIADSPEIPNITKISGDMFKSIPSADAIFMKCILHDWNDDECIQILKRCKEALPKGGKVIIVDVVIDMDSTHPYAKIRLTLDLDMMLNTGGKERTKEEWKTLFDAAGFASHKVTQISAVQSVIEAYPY
# Procedure: (§5) The identity of the enzymic reaction products was ascertained by HPLC-MS using a Finnigan MAT TSQ 7000 (electrospray voltage 4.5 kV, capillary temperature 220° C., carrier gas N2) coupled to a Micro-tech Ultra-Plus Micro-LC equipped with an Ultrasep RP18 column; 5 μm; 1×10 mm), Solvent system (A) 99.8% (v/v) H2O, 0.2% HOAc (B) 99.8% CH3CN (v/v), 0.2% HOAc; gradient: 0-15 min 10-90% B, 15-25 min 90% B; flow 70 μl min^−1). The collision-induced dissociation (CID; collision energy, −25 eV; collision gas, argon; collision pressure, 1.8×10^−3 Torr) mass spectra for the tetrahydrobenzylisoquinoline alkaloids were recorded.
# (§6) Structure Elucidation of Enzymic Products—Initial enzyme activity measurements were carried out using a radioassay. Many of the substrates tested contained more than one site of potential methylation. […] Tetrahydrobenzylisoquinolines readily cleave at low ionization energies into the corresponding isoquinoline- and benzyl ions. This enables identification of methylation at either moiety. Each alkaloidal substrate was monitored for purity by HLPC-MS and the fragmentation pattern was determined. Enzymic product fragmentation patterns were then compared to those of substrate. All substrates were methylated by either PSOMT1 or PSOMT2 on the isoquinoline moiety. For example, (R)- or (S)-reticuline ([M+H]^+ m/z 330) has the major fragment ions m/z 192 (isoquinoline) and m/z 137 (benzyl). The methylation of (R)- or (S)-reticuline by PSOMT1 results in a product of [M+H]^+ m/z 344 (methylated (R)- or (S)-reticuline) with fragment ions at m/z 206 (isoquinoline+CH2) and m/z 137 (unmodified benzyl). Likewise, (R,S)-norcoclaurine ([M+H]^+ m/z 272) has the major fragment ions m/z 161 (isoquinoline) and m/z 107 (benzyl). The methylation of (R,S)-norcoclaurine by PSOMT2 results in a product of [M+H]^+ m/z 286 (methylated (R,S)-norcoclaurine) with fragment ions at m/z 175 (isoquinoline+CH2) and m/z 107 (unmodified benzyl).
# [3] = target: T2, PSOMT2 ((R,S)-norcoclaurine 6-O-methyltransferase); assay: Radioassay of recombinant PSOMT2 with [methyl-3H]-AdoMet (substrate specificity, kinetics, pH and temperature optima)
# Description: as §1, §2, §3, §4
# [4] = target: T1, PSOMT1 ((R,S)-reticuline 7-O-methyltransferase); assay: HPLC-MS identification of enzymic products of PSOMT1; details: HPLC-MS of enzymic product
# Procedure: as §5, §6
smiles,measurement,setting,value
"COc1cc(CC2c3cc(OC)c(O)cc3CCN2C)ccc1O (racemic) [(R,S)-Isoorientaline]","Substrate specificity, relative activity of PSOMT1","[1]; 100% activity = 1.5 pmoles/sec/mg total protein, radioassay",46%
same,Vmax Substrate,[1]; PSOMT1,1 pmol/s
same,kcat Substrate,[1]; PSOMT1,0.02 s⁻¹
same,pH optimum of methylation,[1]; PSOMT1,7.5-9.0
same,ratio kcat/Km,[1]; PSOMT1,1440 M⁻¹ s⁻¹
same,Km,"[1]; PSOMT1, co-substrate AdoMet with the named substrate, read-out: Km AdoMet",260 µM
same,Km,"[1]; PSOMT1, read-out: Km Substrate",17 µM
same,"methylated by PSOMT1 (radioassay, in words)",[1]; one of forty substrates tested,methylates
same,position of O-methylation by PSOMT2,[2],at C-6
same,"Substrate specificity, relative activity of PSOMT2","[3]; 100% activity = 2.0 pmoles/sec/mg total protein, radioassay",47%
same,Vmax Substrate,[3]; PSOMT2,2 pmol/s
same,kcat Substrate,[3]; PSOMT2,0.03 s⁻¹
same,pH optimum of methyl transfer,[3]; PSOMT2,7.5
same,Km,"[3]; PSOMT2, co-substrate AdoMet with the named substrate, read-out: Km AdoMet",280 µM
same,Km,"[3]; PSOMT2, read-out: Km Substrate",29 µM
same,"methylated by PSOMT2 (radioassay, in words)",[3]; one of forty substrates tested,methylating
same,position of O-methylation by PSOMT1,[4],O-methylated by PSOMT1 at C-6
